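The compound was tested at five concentrations on cells cultured in 96-well plates, with a 48-hour exposure period. Abbreviation: GI50, concentration required for 50% inhibition of growth.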 Active and inactive are the calls of the source. Rule as the data show it: active = GI50 up to about 1.1 µM and inactive = higher.
Legend:
Assay in all cases: NCI tumour cell line growth inhibition, 48 h
IGROV-1 = test system: IGROV-1
EKVX = test system: EKVX
UACC-257 = test system: UACC-257
NCI/ADR-RES = test system: NCI/ADR-RES
HT-29 = test system: HT-29
COLO 205 = test system: COLO 205
A549 = test system: A549
M14 = test system: M14
Hs-578T = test system: Hs-578T
PC-3 = test system: PC-3
Malme-3M = test system: Malme-3M
MCF7 = test system: MCF7
MDA-MB-435 = test system: MDA-MB-435
SF-268 = test system: SF-268
SW-620 = test system: SW-620
786-0 = test system: 786-0
SK-MEL-5 = test system: SK-MEL-5
SK-MEL-2 = test system: SK-MEL-2
CAKI-1 = test system: CAKI-1
DU-145 = test system: DU-145
RXF 393 = test system: RXF 393
U-251 = test system: U-251
HCT-116 = test system: HCT-116
UACC-62 = test system: UACC-62
NCI-H23 = test system: NCI-H23
SK-OV-3 = test system: SK-OV-3
NCI-H226 = test system: NCI-H226
SF-295 = test system: SF-295
TK-10 = test system: TK-10
MDA-MB-231 = test system: MDA-MB-231
MOLT-4 = test system: MOLT-4
BT-549 = test system: BT-549
T47D = test system: T47D
ACHN = test system: ACHN
OVCAR-3 = test system: OVCAR-3
SN12C = test system: SN12C
HOP-62 = test system: HOP-62
HCC 2998 = test system: HCC 2998
RPMI-8226 = test system: RPMI-8226
NCI-H522 = test system: NCI-H522
SNB-19 = test system: SNB-19
HOP-92 = test system: HOP-92
SR = test system: SR
SK-MEL-28 = test system: SK-MEL-28
SF-539 = test system: SF-539
OVCAR-5 = test system: OVCAR-5
OVCAR-8 = test system: OVCAR-8
HCT-15 = test system: HCT-15
UO-31 = test system: UO-31
K562 = test system: K562
NCI-H460 = test system: NCI-H460
KM12 = test system: KM12
A498 = test system: A498
MDA-N = test system: MDA-N
HL-60 = test system: HL-60
CCRF-CEM = test system: CCRF-CEM
LOX IMVI = test system: LOX IMVI
OVCAR-4 = test system: OVCAR-4
SNB-75 = test system: SNB-75

With `COc1cc([C@H]2CC(=O)C[C@H](c3cc(OC)c(OC)c(OC)c3)C23C(=O)c2ccccc2C3=O)cc(OC)c1OC` the GI50 (IGROV-1) was > 100 µM (inactive), the GI50 (EKVX) was > 100 µM (inactive) and the GI50 (UACC-257) was > 100 µM (inactive). For the same compound, the GI50 (NCI/ADR-RES) was > 100 µM (inactive), the GI50 (HT-29) was > 100 µM (inactive) and the GI50 (COLO 205) was > 100 µM (inactive). For the same compound, the GI50 (A549) was > 100 µM (inactive), the GI50 (M14) was > 100 µM (inactive) and the GI50 (Hs-578T) was 46.6 µM (inactive). For the same compound, the GI50 (PC-3) was > 100 µM (inactive), the GI50 (Malme-3M) was > 100 µM (inactive) and the GI50 (MCF7) was 71.3 µM (inactive). For the same compound, the GI50 (MDA-MB-435) was > 100 µM (inactive), the GI50 (SF-268) was > 100 µM (inactive) and the GI50 (SW-620) was > 100 µM (inactive). For the same compound, the GI50 (786-0) was 77.6 µM (inactive), the GI50 (SK-MEL-5) was > 100 µM (inactive) and the GI50 (SK-MEL-2) was 42.4 µM (inactive). For the same compound, the GI50 (CAKI-1) was > 100 µM (inactive), the GI50 (DU-145) was > 100 µM (inactive) and the GI50 (RXF 393) was 32.5 µM (inactive). The GI50 (U-251) was 41.3 µM (inactive), the GI50 (HCT-116) was 19.8 µM (inactive) and the GI50 (UACC-62) was 43.1 µM (inactive). For the same compound, the GI50 (NCI-H23) was > 100 µM (inactive), the GI50 (SK-OV-3) was 37.3 µM (inactive) and the GI50 (NCI-H226) was 54.5 µM (inactive). For the same compound, the GI50 (SF-295) was 47.1 µM (inactive), the GI50 (TK-10) was > 100 µM (inactive) and the GI50 (MDA-MB-231) was 56.9 µM (inactive). The GI50 (MOLT-4) was 29.1 µM (inactive), the GI50 (BT-549) was 91.4 µM (inactive) and the GI50 (T47D) was > 100 µM (inactive). For the same compound, the GI50 (ACHN) was 59.4 µM (inactive), the GI50 (OVCAR-3) was 57 µM (inactive) and the GI50 (SN12C) was > 100 µM (inactive). For the same compound, the GI50 (HOP-62) was 51.5 µM (inactive), the GI50 (HCC 2998) was > 100 µM (inactive) and the GI50 (RPMI-8226) was > 100 µM (inactive). The GI50 (NCI-H522) was 25 µM (inactive), the GI50 (SNB-19) was > 100 µM (inactive) and the GI50 (HOP-92) was 33.6 µM (inactive). For the same compound, the GI50 (SR) was > 100 µM (inactive), the GI50 (SK-MEL-28) was > 100 µM (inactive) and the GI50 (SF-539) was 45.7 µM (inactive). For the same compound, the GI50 (OVCAR-5) was > 100 µM (inactive), the GI50 (OVCAR-8) was 40 µM (inactive) and the GI50 (HCT-15) was greater than 100 µM. The GI50 (UO-31) was > 100 µM (inactive), the GI50 (K562) was 44.2 µM (inactive) and the GI50 (NCI-H460) was 91.2 µM (inactive). The GI50 (KM12) was > 100 µM (inactive).

`CC(=O)/N=C1\C=C(NC(C)=O)C(=O)c2ccccc21` was tested, and the GI50 (IGROV-1) was 1.71 µM (inactive), the GI50 (EKVX) was 5.19 µM (inactive) and the GI50 (UACC-257) was 1.81 µM (inactive). For the same compound, the GI50 (NCI/ADR-RES) was 2.51 µM (inactive), the GI50 (HT-29) was 2.58 µM (inactive) and the GI50 (A498) was 15.2 µM (inactive). For the same compound, the GI50 (COLO 205) was 1.94 µM (inactive), the GI50 (A549) was 4.62 µM (inactive) and the GI50 (M14) was 1.73 µM (inactive). For the same compound, the GI50 (Hs-578T) was 6.28 µM (inactive), the GI50 (PC-3) was 2.9 µM (inactive) and the GI50 (Malme-3M) was 1.93 µM (inactive). The GI50 (MCF7) was 1.76 µM (inactive), the GI50 (MDA-N) was 1.9 µM (inactive) and the GI50 (MDA-MB-435) was 1.82 µM (inactive). For the same compound, the GI50 (SF-268) was 3.18 µM (inactive), the GI50 (SW-620) was 1.93 µM (inactive) and the GI50 (786-0) was 1.81 µM (inactive). The GI50 (HL-60) was 1.85 µM (inactive), the GI50 (SK-MEL-5) was 1.64 µM (inactive) and the GI50 (SK-MEL-2) was 3.09 µM (inactive). For the same compound, the GI50 (CAKI-1) was 1.95 µM (inactive), the GI50 (RXF 393) was 2.21 µM (inactive) and the GI50 (CCRF-CEM) was 2.84 µM (inactive). For the same compound, the GI50 (U-251) was 2.99 µM (inactive), the GI50 (HCT-116) was 1.49 µM (inactive) and the GI50 (UACC-62) was 2.35 µM (inactive). The GI50 (NCI-H23) was 0.451 µM (active), the GI50 (SK-OV-3) was 6.79 µM (inactive) and the GI50 (NCI-H226) was 7.96 µM (inactive). For the same compound, the GI50 (SF-295) was 3.68 µM (inactive), the GI50 (TK-10) was 5.64 µM (inactive) and the GI50 (LOX IMVI) was 1.68 µM (inactive). The GI50 (OVCAR-4) was 1.66 µM (inactive), the GI50 (MOLT-4) was 1.98 µM (inactive) and the GI50 (SNB-75) was 2.54 µM (inactive). For the same compound, the GI50 (BT-549) was 2.17 µM (inactive), the GI50 (T47D) was 1.48 µM (inactive) and the GI50 (ACHN) was 1.45 µM (inactive). For the same compound, the GI50 (OVCAR-3) was 2.01 µM (inactive), the GI50 (SN12C) was 1.78 µM (inactive) and the GI50 (HOP-62) was 18.5 µM (inactive). The GI50 (HCC 2998) was 17.7 µM (inactive), the GI50 (RPMI-8226) was 1.39 µM (inactive) and the GI50 (NCI-H522) was 1.33 µM (inactive). For the same compound, the GI50 (SNB-19) was 3.03 µM (inactive), the GI50 (HOP-92) was 1.45 µM (inactive) and the GI50 (SR) was 1.52 µM (inactive). The GI50 (SK-MEL-28) was 3 µM (inactive), the GI50 (SF-539) was 2.37 µM (inactive) and the GI50 (OVCAR-5) was 2.13 µM (inactive). The GI50 (OVCAR-8) was 2.21 µM (inactive), the GI50 (HCT-15) was 1.89 µM and the GI50 (UO-31) was 2.04 µM (inactive). For the same compound, the GI50 (K562) was 2.04 µM (inactive), the GI50 (NCI-H460) was 5.08 µM (inactive) and the GI50 (KM12) was 5.41 µM (inactive).
